Tests used:
[1] = tested on: Com21 synthetic gut community; experiment: community biomass OD578 after 24 h drug treatment relative to untreated (fraction of untreated control); higher = more community growth; details: community: Com21 (Com20 + E. coli ED1a)
Experimental: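 Com21 (Com20 plus E. coli ED1a) was treated with drug for 24 h under anaerobic conditions in mGAM. Community OD578 was then measured and normalised to untreated Com21; mean of 3 biological replicates.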

[2] = tested on: Parabacteroides merdae; experiment: IC25 growth inhibition; higher = less potent
Outline: (§1)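 Under anaerobic conditions, OD578 was read hourly in a plate reader for at least three biological replicates of monocultures grown overnight in mGAM. Each culture started at an OD578 of 0.01 in pre-reduced plates holding twofold drug dilutions and 1% DMSO (or water). IC25 was reported as a tested interval: the lowest concentration where the monotonic median area under the growth curve dropped below the cutoff. That cutoff was 0.75.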

[3] = tested on: Clostridium saccharolyticum; experiment: IC25 growth inhibition; higher = less potent
Outline: as §1

[4] = tested on: Bacteroides vulgatus; experiment: IC25 growth inhibition; higher = less potent
Outline: as §1

[5] = tested on: Ruminococcus gnavus; experiment: IC25 growth inhibition; higher = less potent
Outline: as §1

[6] = tested on: Clostridium perfringens; experiment: IC25 growth inhibition; higher = less potent
Outline: as §1

[7] = tested on: Streptococcus parasanguinis; experiment: IC25 growth inhibition; higher = less potent
Outline: as §1

[8] = tested on: Bacteroides uniformis; experiment: IC25 growth inhibition; higher = less potent
Outline: as §1

[9] = tested on: Roseburia intestinalis; experiment: IC25 growth inhibition; higher = less potent
Outline: as §1

[10] = tested on: Dorea formicigenerans; experiment: IC25 growth inhibition; higher = less potent
Outline: as §1

[11] = tested on: Fusobacterium nucleatum subsp. Nucleatum; experiment: IC25 growth inhibition; higher = less potent
Outline: as §1

[12] = tested on: Yersinia enterocolitica WA-314; experiment: IC25 growth inhibition; higher = less potent
Outline: as §1

[13] = tested on: Yersinia pseudotuberculosis; experiment: IC25 growth inhibition; higher = less potent
Outline: as §1

[14] = tested on: Bacteroides thetaiotaomicron; experiment: IC25 growth inhibition; higher = less potent
Outline: as §1

[15] = tested on: Salmonella enterica typhimurium; experiment: IC25 growth inhibition; higher = less potent
Outline: as §1

[16] = tested on: Escherichia coli ED1a; experiment: IC25 growth inhibition; higher = less potent
Outline: as §1

[17] = tested on: Clostridium ramosum; experiment: IC25 growth inhibition; higher = less potent
Outline: as §1

[18] = tested on: Shigella flexneri; experiment: IC25 growth inhibition; higher = less potent
Outline: as §1

[19] = tested on: Bacteroides fragilis NT; experiment: IC25 growth inhibition; higher = less potent
Outline: as §1

[20] = tested on: Coprococcus comes; experiment: IC25 growth inhibition; higher = less potent
Outline: as §1

[21] = tested on: Vibrio cholerae; experiment: IC25 growth inhibition; higher = less potent
Outline: as §1

[22] = tested on: Clostridium bolteae; experiment: IC25 growth inhibition; higher = less potent
Outline: as §1

[23] = tested on: Collinsella aerofaciens; experiment: IC25 growth inhibition; higher = less potent
Outline: as §1

[24] = tested on: Eubacterium rectale; experiment: IC25 growth inhibition; higher = less potent
Outline: as §1

[25] = tested on: Streptococcus salivarius; experiment: IC25 growth inhibition; higher = less potent
Outline: as §1

[26] = drug pretreatment concentration 10 µM
[27] = drug pretreatment concentration 20 µM
[28] = drug pretreatment concentration 40 µM
[29] = drug pretreatment concentration 80 µM
[30] = drug pretreatment concentration 160 µM
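For IC25 growth inhibition in this document: lowest concentration where monotonic median growth AUC falls below 0.75 of drug-free control.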

SMILES	community biomass OD578 ([1]; drug pretreatment concentration 5 µM)	community biomass OD578 [1, 26]	community biomass OD578 [1, 27]	community biomass OD578 [1, 28]	community biomass OD578 [1, 29]	IC25 growth inhibition [2] [µM]	IC25 growth inhibition [3] [µM]	IC25 growth inhibition [4] [µM]	IC25 growth inhibition [5] [µM]	IC25 growth inhibition [6] [µM]	IC25 growth inhibition [7] [µM]	IC25 growth inhibition [8] [µM]	IC25 growth inhibition [9] [µM]	IC25 growth inhibition [10] [µM]	IC25 growth inhibition [11] [µM]	IC25 growth inhibition [12] [µM]	IC25 growth inhibition [13] [µM]	IC25 growth inhibition [14] [µM]	IC25 growth inhibition [15] [µM]	IC25 growth inhibition [16] [µM]	IC25 growth inhibition [17] [µM]	IC25 growth inhibition [18] [µM]	IC25 growth inhibition [19] [µM]	IC25 growth inhibition [20] [µM]	IC25 growth inhibition [21] [µM]	IC25 growth inhibition [22] [µM]	IC25 growth inhibition [23] [µM]	IC25 growth inhibition [24] [µM]	IC25 growth inhibition [25] [µM]	community biomass OD578 [1, 30]
C#C[C@]1(O)CC[C@H]2[C@@H]3CCc4cc(O)ccc4[C@H]3CC[C@@]21C [Ethinylestradiol]	1.01	0.986	0.99	0.976	0.779	> 80	> 80	> 80	> 80	> 80	> 80	> 80	> 80	> 80	> 80	> 80	> 80	> 80	> 80	> 80	> 80	> 80	> 80	> 80	≤ 40	> 80	> 80	> 80	> 80	–
Cc1c(Cl)cccc1Nc1ccccc1C(=O)O [Tolfenamic acid]	–	0.991	0.971	0.962	0.923	≤ 40	≤ 160	≤ 80	≤ 80	≤ 160	> 160	≤ 160	> 160	> 160	≤ 40	> 160	> 160	≤ 160	> 160	> 160	≤ 80	> 160	≤ 80	≤ 80	≤ 80	> 160	> 160	> 160	≤ 160	0.864
CC[C@H]1OC(=O)[C@H](C)[C@@H](O[C@H]2C[C@@](C)(OC)[C@@H](O)[C@H](C)O2)[C@H](C)[C@@H](O[C@@H]2O[C@H](C)C[C@H](N(C)C)[C@H]2O)[C@](C)(O)C[C@@H](C)C(=O)[C@H](C)[C@@H](O)[C@]1(C)O [Erythromycin]	–	0.734	0.696	0.608	0.496	< 1.25	< 1.25	< 1.25	< 1.25	< 1.25	< 1.25	< 1.25	< 1.25	< 1.25	≤ 5	≤ 20	≤ 40	< 1.25	≤ 40	≤ 20	< 1.25	≤ 10	< 1.25	< 1.25	< 1.25	≤ 2.5	< 1.25	< 1.25	< 1.25	0.409
C[C@H]1O[C@H](O[C@H]2[C@H](O)[C@@H](O)[C@@H](O[C@H]3[C@H](O)[C@@H](O)C(O)O[C@@H]3CO)O[C@@H]2CO)[C@H](O)[C@@H](O)[C@@H]1N[C@H]1C=C(CO)[C@@H](O)[C@H](O)[C@H]1O (stereo partly specified) [Acarbose]	–	1.03	1.01	1	1	> 160	> 160	≤ 40	> 160	> 160	> 160	> 160	≤ 20	> 160	> 160	> 160	> 160	> 160	> 160	> 160	> 160	> 160	≤ 10	> 160	> 160	> 160	> 160	≤ 40	> 160	0.989
